According to paper PMC4355058 (Analytical biochemistry, 2014):
Counter-ions that a name gives are not always drawn. Like-named read-outs stand apart in the source and are kept apart here.

What was measured:
A2a-8M receptor = A2a-8M receptor (Homo sapiens, UniProt P29274, A54L/K122A/L202A/L235A/N154A/R107A/S277A/T88A/V239A); test: Isothermal chemical denaturation
WT A2a receptor = settings: cited from earlier work
A2a-8M [1] = biological target: A2a-8M (Homo sapiens, UniProt P29274, A54L/K122A/L202A/L235A/R107A/S277A/T88A/V239A); test: SPR analysis of small molecule binding
A2aR = settings: read-out: Kd, SPR study at 10°C; cited from earlier work
A2a-8M [2] = test: SPR analysis of small molecule binding; settings: read-out: SPR Kd
[3] = [L] = 21 μM, 25°C, 338 nm, apo 1.37
[4] = [L] = 21 μM, 25°C, 338 nm, apo 2.90
[5] = [L] = 21 μM, 25°C, protein […], 338 nm, apo 3.96
[6] = [L] = 2 μM, 25°C, 338 nm (SCH58261 at 316 nm), apo 2.90 (338 nm), 2.88 (316 nm)
[7] = [L] = 2 μM, 25°C, 338 nm (SCH58261 at 316 nm), apo 1.37

Chain of A2a-8M receptor (P29274 1-316 A54L/T88A/R107A/K122A/N154A/L202A/L235A/V239A/S277A): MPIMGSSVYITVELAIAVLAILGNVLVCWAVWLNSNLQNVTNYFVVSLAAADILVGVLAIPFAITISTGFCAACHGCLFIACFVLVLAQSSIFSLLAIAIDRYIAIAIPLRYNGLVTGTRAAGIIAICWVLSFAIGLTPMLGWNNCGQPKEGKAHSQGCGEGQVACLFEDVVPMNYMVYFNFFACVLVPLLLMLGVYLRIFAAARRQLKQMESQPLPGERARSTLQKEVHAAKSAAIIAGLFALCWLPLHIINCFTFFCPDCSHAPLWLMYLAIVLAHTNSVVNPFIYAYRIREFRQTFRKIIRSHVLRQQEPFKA
Chain of A2a-8M (Homo sapiens, UniProt P29274, A54L/K122A/L202A/L235A/R107A/S277A/T88A/V239A) (P29274 1-317 A54L/T88A/R107A/K122A/L202A/L235A/V239A/S277A): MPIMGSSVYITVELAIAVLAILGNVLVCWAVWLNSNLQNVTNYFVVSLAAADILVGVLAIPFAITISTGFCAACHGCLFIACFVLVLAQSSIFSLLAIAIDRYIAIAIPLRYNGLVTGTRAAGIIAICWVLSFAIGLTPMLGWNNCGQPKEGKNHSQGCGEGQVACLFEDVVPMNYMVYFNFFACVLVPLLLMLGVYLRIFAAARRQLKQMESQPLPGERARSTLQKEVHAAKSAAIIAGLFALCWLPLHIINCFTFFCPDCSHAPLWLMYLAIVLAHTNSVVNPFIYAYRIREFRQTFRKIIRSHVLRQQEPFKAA

Row | m (A2a-8M receptor; [3]) [kcal/mol×M] | C½ (midpoint of denaturation curve) (A2a-8M receptor; [4]) [M GuHCl] | ΔG (Gibbs energy of protein stability in presence of ligand) (A2a-8M receptor; [5]) [kcal/mol] | C½ (midpoint of denaturation curve) (A2a-8M receptor; [6]) [M GuHCl] | Structure (SMILES) | also measured
1 | 1.65 | 3.53 | 5.82 |  | CCOc1nc2c(N)ncnc2n1CC [ANR94] | 
2 |  |  |  |  | CCNC(=O)[C@H]1O[C@@H](n2cnc3c(N)nc(NCCc4ccc(CCC(=O)O)cc4)nc32)[C@H](O)[C@@H]1O [CGS21680] | binding affinity (WT A2a receptor): > 10 µM
3 | 1.37 | 2.25 | 3.08 |  | N=C(N)NC(=O)Cc1c(Cl)cccc1Cl [Guanfacine HCl] | 
4 |  |  |  | 3.18 | N#Cc1c(N)nc(SCc2ncc[nH]2)c(C#N)c1-c1ccc(O)cc1 [LUF5834] | m (A2a-8M receptor; [7]): 1.90 kcal/mol×M
5 |  |  |  | 3.20 | CCO/C(O)=C1\C(C)=NC(c2ccccc2)=C(C(=O)OCc2ccc([N+](=O)[O-])cc2)C1C#Cc1ccccc1 (stereo not shown) [MRS1334] | Kd (A2a-8M [1]): 5.9 µM; Kd (A2a-8M receptor): 5.5 µM; m (A2a-8M receptor; [7]): 1.30 kcal/mol×M
6 | 1.56 | 2.22 | 3.47 |  | Nc1nc(SCCc2ccc(S(=O)(=O)O)cc2)nc2c1ncn2[C@@H]1O[C@H](CO)[C@@H](O)[C@H]1O [PSB0777] | 
7 |  |  |  |  | Nc1nc2c(cnn2CCc2ccccc2)c2nc(-c3ccco3)nn12 [SCH58261] | Kd (A2a-8M [2]): 0.014 µM; C½ (midpoint of denaturation curve) (A2a-8M receptor): 3.91 M GuHCl; m (A2a-8M receptor): 1.80 kcal/mol×M; ΔG (Gibbs energy of protein stability in presence of ligand) (A2a-8M receptor): 7.01 kcal/mol
8 |  |  |  |  | COc1ccc(CCCn2ncc3c2nc(N)n2nc(-c4ccco4)nc32)cc1 [SCH442416] | binding affinity (WT A2a receptor): 50 pm
9 |  |  |  |  | COC1CCN(c2cccc(-c3cc(NC(C)=O)nc(-n4nc(C)cc4C)n3)n2)CC1 [TC-G1004] | m (A2a-8M receptor; [L] = 0.4 μM, 25°C, 338 nm (SCH442416 at 316 nm), apo 1.37): 1.42 kcal/mol×M
10 |  |  |  | 2.98 | c1ccc(NCc2ccc(CNc3ccccn3)cc2)nc1 [WZ811] | m (A2a-8M receptor; [7]): 1.19 kcal/mol×M
11 | 1.50 | 3.41 | 5.11 |  | Cl.Cl.OCCOCCN1CCN(Cc2cccc(Oc3ccccc3)c2)CC1 [ZK756326] | 

Row | Structure (SMILES) | m (A2a-8M receptor; [3]) [kcal/mol×M] | C½ (midpoint of denaturation curve) (A2a-8M receptor; [4]) [M GuHCl] | ΔG (Gibbs energy of protein stability in presence of ligand) (A2a-8M receptor; [5]) [kcal/mol] | C½ (midpoint of denaturation curve) (A2a-8M receptor; [6]) [M GuHCl] | also measured
12 | Cn1c(=O)c2c(ncn2C)n(C)c1=O [Caffeine] |  |  |  | 3.28 | 
13 | CCCCC#Cc1nc(NC)c2ncn([C@@H]3O[C@H](CO)[C@@H](O)[C@H]3O)c2n1 [Hemado] | 1.77 | 2.59 | 4.59 |  | 
14 | CCCn1c(=O)[nH]c2nc(-c3ccc(S(=O)(=O)O)cc3)[nH]c2c1=O [PSB1115] |  |  |  | 3.82 | Kd (A2aR): 0.158 µM; m (A2a-8M receptor; [7]): 1.63 kcal/mol×M
15 | CN1CCc2cccc(Cl)c2CC1.Cl [SKF86466 HCl] | 1.55 | 2.18 | 3.38 |  | 
